According to patent publication US20160002204A1 (Board of Regents, The University of Texas System, priority 2014, published 2016):

Experiments:
[1] = target: T1, GLS1 (purified recombinant human GAC) (Homo sapiens, UniProt O94925); experiment: GLS1 enzymatic activity assay (dual-coupled, Amplex UltraRed/resorufin); type: biochemical
T1 sequence (O94925 55-598 isoform O94925-3 limits assumed): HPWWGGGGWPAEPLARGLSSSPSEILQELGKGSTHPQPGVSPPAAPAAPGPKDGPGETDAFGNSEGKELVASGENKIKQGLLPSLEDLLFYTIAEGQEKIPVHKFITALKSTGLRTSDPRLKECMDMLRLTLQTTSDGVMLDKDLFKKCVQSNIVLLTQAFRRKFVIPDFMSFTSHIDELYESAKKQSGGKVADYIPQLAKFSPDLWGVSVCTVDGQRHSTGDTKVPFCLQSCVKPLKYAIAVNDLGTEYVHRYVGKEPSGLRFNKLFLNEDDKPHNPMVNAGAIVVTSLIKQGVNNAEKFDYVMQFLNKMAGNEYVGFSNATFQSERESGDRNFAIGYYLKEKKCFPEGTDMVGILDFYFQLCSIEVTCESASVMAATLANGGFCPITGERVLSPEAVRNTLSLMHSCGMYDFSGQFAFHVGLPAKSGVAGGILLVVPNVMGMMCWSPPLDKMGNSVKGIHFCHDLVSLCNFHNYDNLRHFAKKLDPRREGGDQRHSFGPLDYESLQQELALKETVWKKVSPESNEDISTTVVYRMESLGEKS
Method: GLS1 Enzymatic Activity Assay
The inhibition of purified recombinant human GAC by varying concentrations of inhibitors is assessed via a dual-coupled enzymatic assay. The glutamate produced by the glutaminase reaction is used by glutamate oxidase to produce α-ketoglutarate, ammonia, and hydrogen peroxide, with this hydrogen peroxide subsequently being used by horseradish peroxidase to produce resorufin in the presence of Amplex UltraRed. The assay buffer consisted of 50 mM Hepes (pH 7.4), 0.25 mM EDTA and 0.1 mM Triton X-100. GAC was incubated with potassium phosphate (10 minutes at room temperature) prior to incubation with inhibitor (10 minutes at room temperature). The final reaction conditions were as follows: 2 nM GAC, 50 mM potassium phosphate, 100 mU/mL glutamate oxidase (Sigma), 1 mM glutamine (Sigma), 100 mU/mL horseradish peroxidase (Sigma), 75 μM Amplex UltraRed (Life Technologies), and 1% (v/v) DMSO. The production of resorufin was monitored on a Perkin Elmer Envision plate reader (excitation 530 nm, emission 590 nm) either in a kinetics or endpoint mode (at 20 minutes). IC50 values were calculated using a four-parameter logistic curve fit.

A549 cells = experiment: A549 proliferation (viability) assay, Cell Titer Fluor, 72 hours; type: cell-based; details: Homo sapiens
Method: A549 cells were routinely maintained in RPMI 1640 media (Gibco catalog number 11875-093) supplemented with 10% dialyzed fetal bovine serum using a humidified incubator (37° C., 5% CO2 and ambient O2). In preparation for the viability assay, cells were inoculated into 384-well black CulturPlates (Perkin Elmer) at a density of 1000 cells/well in a volume of 40 uL. Following a 24-hour incubation at 37° C., 5% CO2 and ambient O2, cells were treated with compound (10 uL) in a final DMSO concentration of 0.5% (v/v). The microplates were then incubated for 72 hours (37° C., 5% CO2 and ambient O2). Cell Titer Fluor (Promega) was subsequently added (10 uL of 6× reagent) and mixed for 15 minutes at room temperature. The plates were then incubated for 30 minutes (37° C., 5% CO2 and ambient O2) and fluorescence was subsequently read on the Perkin Elmer Envision plate reader. EC50 values were calculated using a four-parameter logistic curve fit.

Compound | IC50 [1] [nM] | EC50 (A549 cells) [nM]
Cc1ccc(CNC(=O)c2cn(CC(F)CCn3ccc(NC(=O)CC4CCC4)c(F)c3=O)nn2)cn1 (stereo not shown) [Example 304, 1-(4-(4-(2-cyclobutylacetamido)-3-fluoro-2-oxopyridin-1(2H)-yl)-2-fluorobutyl)-N-((6-methylpyridin-3-yl)methyl)-1H-1,2,3-triazole-4-carboxamide] | < 100 | < 100
O=C(Cc1cccc(OC(F)(F)F)c1)Nc1ccn(CCCCn2cc(C(=O)NCc3cccc(F)c3)nn2)c(=O)c1 [Example 66, N-[(3-fluorophenyl)methyl]-1-[4-(2-oxo-4-{2-[3-(trifluoromethoxy)phenyl]acetamido}-1,2-dihydropyridin-1-yl)butyl]-1H-1,2,3-triazole-4-carboxamide] | < 100 | 500 to 5000
O=C(CC1CCCC1)Nc1ccn(CCC(F)Cn2cc(C(=O)NCc3cncc(C(F)(F)F)c3)nn2)c(=O)c1F (stereo not shown) [Example 360, 1-{4-[4-(2-cyclopentylacetamido)-3-fluoro-2-oxo-1,2-dihydropyridin-1-yl]-2-fluorobutyl}-N-{[5-(trifluoromethyl)pyridin-3-yl]methyl}-1H-1,2,3-triazole-4-carboxamide] | < 100 | < 100
O=C(CC1CCCC1)Nc1ccn(CCC(F)Cn2cc(C(=O)NCc3cccc(OC(F)(F)F)c3)nn2)c(=O)c1 (stereo not shown) [Example 220, 1-{4-[4-(2-cyclopentylacetamido)-2-oxo-1,2-dihydropyridin-1-yl]-2-fluorobutyl}-N-{[3-(trifluoromethoxy)phenyl]methyl}-1H-1,2,3-triazole-4-carboxamide] | < 100 | < 100
CCOC(=O)N1CCC(CC(=O)Nc2ccn(CCC(F)Cn3cc(C(=O)NCc4cc(C(F)(F)F)ccn4)nn3)c(=O)c2F)CC1 (stereo not shown) [Example 324, ethyl 4-{[(3-fluoro-1-{3-fluoro-4-[4-({[4-(trifluoromethyl)pyridin-2-yl]methyl}carbamoyl)-1H-1,2,3-triazol-1-yl]butyl}-2-oxo-1,2-dihydropyridin-4-yl)carbamoyl]methyl}piperidine-1-carboxylate] | < 100 | < 100
O=C(Cc1cccc(OC(F)(F)F)c1)Nc1ccc(CCCCn2ccc(NC(=O)CCO)nc2=O)nn1 [Example 117, 3-hydroxy-N-{2-oxo-1-[4-(6-{2-[3-(trifluoromethoxy)phenyl]acetamido}pyridazin-3-yl)butyl]-1,2-dihydropyrimidin-4-yl}propanamide] | < 100 | 500 to 5000
O=C(Cc1ccccc1)Nc1ccn(CCCCc2nnc(NC(=O)Cc3ccccn3)s2)c(=O)c1 [Example 1, N-(2-oxo-1-(4-(5-(2-(pyridin-2-yl)acetamido)-1,3,4-thiadiazol-2-yl)butyl)-1,2-dihydropyridin-4-yl)-2-phenylacetamide] | < 100 | 500 to 5000
CC(C)(C)OC(=O)Nc1ccn(CCCCn2cc(C(=O)NCc3cccc(OC(F)(F)F)c3)nn2)c(=O)c1 [Example 3, Tert-butyl(2-oxo-1-(4-(4-((3-(trifluoromethoxy)benzyl)carbamoyl)-1H-1,2,3-triazol-1-yl)butyl)-1,2-dihydropyridin-4-yl)carbamate] | < 100 | 100 to 500
O=C(Cc1ccccc1)Nc1ccn(CCCCn2ccc(NC(=O)Cc3ccccc3)nc2=O)c(=O)n1 [Example 15, N,N′-(butane-1,4-diylbis(2-oxo-1,2-dihydropyrimidine-1,4-diyl))bis(2-phenylacetamide)] | < 100 | > 5000
CC(C(=O)Nc1ccn(CCC(F)Cn2cc(C(=O)NCc3cncc(C(F)(F)F)c3)nn2)c(=O)c1F)N1CCCCC1 (stereo not shown) [Example 352, 1-(2-fluoro-4-{3-fluoro-2-oxo-4-[2-(piperidin-1-yl)propanamido]-1,2-dihydropyridin-1-yl}butyl)-N-{[5-(trifluoromethyl)pyridin-3-yl]methyl}-1H-1,2,3-triazole-4-carboxamide] | < 100 | < 100
Cc1ccc(CNC(=O)c2cn(CC(F)CCn3ccc(NC(=O)CC4CCCO4)cc3=O)nn2)cn1 (stereo not shown) [Example 200, 1-(2-fluoro-4-{2-oxo-4-[2-(oxolan-2-yl)acetamido]-1,2-dihydropyridin-1-yl}butyl)-N-[(6-methylpyridin-3-yl)methyl]-1H-1,2,3-triazole-4-carboxamide] | 100 to 500 | 500 to 5000
CC(C)(C)OC(=O)N[C@@H]1CCC[C@@H](C(=O)Nc2ccn(CCC(F)Cn3cc(C(=O)NCc4cccc(OC(F)(F)F)c4)nn3)c(=O)c2)C1 (stereo partly drawn) [Example 249, tert-butyl N-[(1R,3R)-3-[(1-{3-fluoro-4-[4-({[3-(trifluoromethoxy)phenyl]methyl}carbamoyl)-1H-1,2,3-triazol-1-yl]butyl}-2-oxo-1,2-dihydropyridin-4-yl)carbamoyl]cyclohexyl]carbamate] | < 100 | < 100
Cc1ccc(CNC(=O)c2nnc(CCCCn3ccc(NC(=O)OC4CCC4)c(F)c3=O)s2)cn1 [Example 468, Cyclobutyl(3-fluoro-1-(4-(5-(((6-methylpyridin-3-yl)methyl)carbamoyl)-1,3,4-thiadiazol-2-yl)butyl)-2-oxo-1,2-dihydropyridin-4-yl)carbamate] | 100 to 500 | 100 to 500
O=C(NCc1cccc(OC(F)(F)F)c1)c1cn(CC(F)CCn2ccc(COc3cccc(OC(F)(F)F)c3)cc2=O)nn1 (stereo not shown) [Example 476, 1-(2-fluoro-4-{2-oxo-4-[3-(trifluoromethoxy)phenoxymethyl]-1,2-dihydropyridin-1-yl}butyl)-N-{[3-(trifluoromethoxy)phenyl]methyl}-1H-1,2,3-triazole-4-carboxamide] | < 100 | 500 to 5000
CC(C)(C)OC(=O)N[C@H]1CC[C@H](CC(=O)Nc2ccn(CCC(F)Cn3cc(C(=O)NCc4cccc(OC(F)(F)F)c4)nn3)c(=O)c2)CC1 (stereo partly shown) [Example 239, tert-butyl N-[(1r,4r)-4-{[(1-{3-fluoro-4-[4-({[3-(trifluoromethoxy)phenyl]methyl}carbamoyl)-1H-1,2,3-triazol-1-yl]butyl}-2-oxo-1,2-dihydropyridin-4-yl)carbamoyl]methyl}cyclo-hexyl]carbamate] | < 100 | < 100
Cc1ccc(CNC(=O)c2nnc(CCCCn3ccc(NC(=O)C(=O)N4CCCCC4)c(F)c3=O)s2)cn1 [Example 463, 5-(4-{3-fluoro-2-oxo-4-[2-oxo-2-(piperidin-1-yl)acetamido]-1,2-dihydropyridin-1-yl}butyl)-N-[(6-methylpyridin-3-yl)methyl]-1,3,4-thiadiazole-2-carboxamide] | 100 to 500 | 100 to 500
Nc1nnc(CCCCn2ccc(NC(=O)Cc3ccccc3)nc2=O)s1 [Example 72, N-{1-[4-(5-amino-1,3,4-thiadiazol-2-yl)butyl]-2-oxo-1,2-dihydropyrimidin-4-yl}-2-phenylacetamide] | 500 to 5000 | > 5000
O=C(CC1CC1)Nc1ccn(CCCCn2cc(C(=O)NCc3cccc(C(F)(F)F)c3)nn2)c(=O)c1 [Example 154, 1-{4-[4-(2-cyclopropylacetamido)-2-oxo-1,2-dihydropyridin-1-yl]butyl}-N-{[3-(trifluoromethyl)phenyl]methyl}-1H-1,2,3-triazole-4-carboxamide] | < 100 | 500 to 5000
O=C(CC1CCCCC1)Nc1ccn(CCC(F)Cn2cc(C(=O)NCc3cccc(C(F)(F)F)c3)nn2)c(=O)c1F (stereo not shown) [Example 264, 1-{4-[4-(2-cyclohexylacetamido)-3-fluoro-2-oxo-1,2-dihydropyridin-1-yl]-2-fluorobutyl}-N-{[3-(trifluoromethyl)phenyl]methyl}-1H-1,2,3-triazole-4-carboxamide] | < 100 | < 100
O=C(Nc1ccn(CCC(F)Cn2cc(C(=O)NCc3cccc(OC(F)(F)F)c3)nn2)c(=O)c1F)C(=O)N1CCCCC1 (stereo not shown) [Example 358, 1-(2-fluoro-4-(3-fluoro-2-oxo-4-(2-oxo-2-(piperidin-1-yl)acetamido)pyridin-1(2H)-yl)butyl)-N-(3-(trifluoromethoxy)benzyl)-1H-1,2,3-triazole-4-carboxamide] | < 100 | < 100
